Measurements reported in patent US9808470B2, “Estrogenic components for use in the treatment of neurological disorders” (UNIVERSITE DE LIEGE, priority 2012, dated 2017).

Assays:
Assay type in all cases: in vivo
[1] = tested on: Myelin Basic Protein (MBP); test: Ex.7 therapeutic HIE rat model: myelin basic protein staining; conditions: all the E4 treated groups, vs vehicle
Method: FIG. 22. Myelin Basic Protein (MBP) staining of brain coronal sections in rat pups that were treated with estetrol. Brains were removed upon sacrifice at postnatal day 14 and paraformaldehyde-fixed and paraffin-embedded brain samples were coronally sectioned at the hippocampus region. The sections were processed for detection of white matter damage through immunohistological staining with anti-MBP antibody. (A-F) MBP staining of brain coronal sections (scale bar: 2 mm) is shown. (G-L) MBP staining of cingulum of the left hemisphere is (scale bar: 2 mm) is shown. (M) The ratio of the MBP positive areas OD ratio was calculated as the MBP positive area OD of the ipsilateral hemisphere divided by the MBP positive area OD of the contralateral hemisphere. 10 samples from each study group were analyzed. The ratio of the MBP positive area OD in the Sham group was considered by default as 1.0.
The sections were processed for immunohistochemical detection of neuronal myelin basic protein disruption. For antigen retrieval, the sections were heated in 10 mmol/L citrate buffer (pH 6.0) at 100° C. for 10 min. […] 10 samples from each study group of both study designs were analyzed with the aid of an image scanner (Nanozoomer Virtual Microscopy, Hamamatsu, Tokyo, Japan) and ImageJ software (NIH, USA). The MBP positive areas optical densities in the ipsilateral and contralateral hemispheres were measured. […]

[2] = tested on: Microtubule-associated protein 2 (MAP2); test: Ex.4 therapeutic HIE rat model: MAP2 staining; conditions: PND14
Method: The brain sections were processed for immunohistochemical detection of neuronal cytoskeletal disruption. For antigen retrieval, the sections were heated in 10 mmol/L citrate buffer (pH 6.0) at 100° C. for 10 minutes. Endogenous peroxidase activity was blocked with 3% hydrogen peroxide for 10 minutes and after a second blocking with 5% normal goat serum, the sections were incubated with anti-microtubule-associated protein 2 (MAP2) antibody, diluted 1:1000 (mouse monoclonal antibody; Sigma, St. Louis, Mo., US) 1 h at room temperature. After rinsing, biotinylated goat anti-mouse immunoglobulin G (Vector Laboratories, Burlingame, Calif.) was added, and antibody detection was performed with the avidin-biotin complex method (Vector Laboratories), with 3,3′-diaminobenzidine (DAB) as the chromogen. Following the reaction with DAB, the slides were washed, dehydrated, and coverslipped.
Samples were analyzed with the aid of an image scanner (Nanozoomer Virtual Microscopy, Hamamatsu, Tokyo, Japan) and the ImageJ software (NIH, US). The MAP2 positive areas in the ipsilateral and contralateral hemispheres were measured. The ratio of the MAP2 positive areas was calculated as the MAP2 positive area of the ipsilateral hemisphere divided by the MAP2 positive area of the contralateral hemisphere. The ratio of the MAP2 positive area in the Sham group was considered by default as 1.0.
(§1) To study the therapeutic effect of estetrol, newborn rat pups were assigned to one of the following 6 groups at postnatal day 7: sham group (n=29), vehicle group (n=20), 1 mg/kg E4 group (n=16), 5 mg/kg E4 group (n=19), 10 mg/kg day E4 (n=17) and 50 mg/kg day E4 group (n=15). At postnatal day 7 animals were anesthetized with isoflurane (induction, 3.0%; maintenance, 1.5%), and the rat pups from vehicle and E4 groups passed through surgery encompassing left common carotid artery double ligation and cut. After surgery, the pups were returned to their dams and allowed to recover for 1 hour. The pups were then placed in a humidified hypoxic in vivo cabinet (CoyLab). Hypoxia was produced by the inhalation of 11%-8% of oxygen balanced by nitrogen at decreased concentration of oxygen for 20 minutes, followed by inhalation of 8% oxygen and 92% nitrogen at constant concentration for 35 minutes. All the manipulations were performed at 37° C.
(§2) Upon retrieval from the hypoxia chamber the rat pups were injected intraperitoneally either by vehicle (vehicle group) or by E4 (1 mg/kg, 5 mg/kg, 10 mg/kg or 50 mg/kg) in accordance to the group assignment. The animals from the sham group went through similar procedures but proceeded neither left common carotid artery ligation and cut followed by hypoxia nor vehicle or estetrol administration. Rat pups recovered with their dams until being sacrificed at postnatal day 14.

doublecortin (DCX) = test: Ex.4 therapeutic HIE rat model: doublecortin staining
Method: The sections were heated in 10 mmol/L citrate buffer (pH 6.0) at 100° C. for 10 minutes. Endogenous peroxidase activity was blocked with 3% hydrogen peroxide for 10 minutes and after a second blocking with 5% normal goat serum, the sections were incubated with anti-doublecortin (DCX) antibody, diluted 1:1000 (rabbit polyclonal antibody; Abcam, Cambridge, UK) and anti-vascular endothelial growth factor (VEGF) antibody, diluted 1:100 (mouse monoclonal antibody; Abcam, Cambridge, UK) overnight at 4° C. After rinsing, Alexa Fluor® goat anti-rabbit, diluted 1:1000 and Alexa Fluor® goat anti-mouse, diluted 1:1000 (Invitrogen Inc., Ghent, Belgium) were added and sections were incubated 1 h at room temperature. Mounting medium containing 4′,6-diamidino-2-phenylindole (DAPI) for fluorescent studies was used (Vector Laboratories). Samples were analyzed with the aid of a microscope (Olympus Vanox AHBT3, Olympus), and the ImageJ software (NIH). The percentage of positively stained cells was quantified as a sum of positively stained either DCX or VEGF cells divided by the total number of DAPI positive cells expressed in percentage.
as §1, §2

[3] = Ex.4 therapeutic HIE rat model: brain weight; conditions: PND14
Method: Animals were then perfused transcardially with 0.9% saline solution at 4° C., and then with 4% paraformaldehyde in a 0.1-mol/L phosphate-buffered saline solution (pH 7.4) at 4° C. The brains were quickly isolated, weighed and immersed in the same fixative solution at 4° C. for 24 hours, dehydrated with a graded series of ethanol and xylene, and embedded in paraffin.
as §1, §2

[4] = 1 mg/kg E4 single ip dose after HI
[5] = 5 mg/kg E4 single ip dose after HI
[6] = 10 mg/kg E4 single ip dose after HI
[7] = 50 mg/kg E4 single ip dose after HI

## C[C@]12CC[C@@H]3c4ccc(O)cc4CC[C@H]3[C@@H]1[C@@H](O)[C@@H](O)[C@@H]2O [E4, 1,3,5(10)-estratrien-3,15α,16α,17β-tetrol]
[1]
  ratio of the MBP-positive area OD: significantly higher
[2]; [4]
  ratio of MAP2-positive area (ipsilateral/contralateral): 0.943±0.028
[2]; [5]
  ratio of MAP2-positive area (ipsilateral/contralateral): 0.89±0.037
[2]; [6]
  ratio of MAP2-positive area (ipsilateral/contralateral): 0.938±0.044
[2]; [7]
  ratio of MAP2-positive area (ipsilateral/contralateral): 0.966±0.036
Doublecortin (DCX); 5 mg/kg E4 single ip dose after HI, cortex
  percentage of DCX positively stained cells: 45.2±3.339%
Doublecortin (DCX); 10 mg/kg E4 single ip dose after HI, CA1
  percentage of DCX positively stained cells: 37.1±3.84
Doublecortin (DCX); 10 mg/kg E4 single ip dose after HI, CA2/CA3
  percentage of DCX positively stained cells: 42.5±5.986%
Doublecortin (DCX); 10 mg/kg E4 single ip dose after HI, cortex
  percentage of DCX positively stained cells: 49.4±4.949%
Doublecortin (DCX); 50 mg/kg E4 single ip dose after HI, CA1
  percentage of DCX positively stained cells: 37.3±4.784%
Doublecortin (DCX); 50 mg/kg E4 single ip dose after HI, cortex
  percentage of DCX positively stained cells: 49.6±3.11%
Doublecortin (DCX); E4 1, 5, 10, 50 mg/kg single ip dose after HI, DG, among study groups
  DCX staining: neither DCX nor VEGF staining was significantly different
[3]; [4]
  brain weight: 1.099 ± 0.037 g
[3]; [5]
  brain weight: 1.06 ± 0.035 g
[3]; [6]
  brain weight: 1.12 ± 0.33 g
[3]; [7]
  brain weight: 1.163 ± 0.025 g
